We go through two compounds from ChEMBL document CHEMBL4616633, “Citral Inhibits the Inflammatory Response and Hyperalgesia in Mice: The Role of TLR4, TLR2/Dectin-1, and CB2 Cannabinoid Receptor/ATP-Sensitive K+ Channel Pathways” (J Nat Prod, 2020).

The test system of series [1] is Mus musculus. In words: Inhibition of carrageenan-induced thermal allodynia in Swiss mouse at 0.5 mg/kg, sc pretreated for 1 hr followed by carrageenan-stimulation and measured after 6 hrs relative to control. The series is classed as functional.
For series [2], the system named is Mus musculus. In words: Inhibition of carrageenan-induced paw edema in Swiss mouse at 0.5 mg/kg, sc pretreated for 1 hr followed by carrageenan-stimulation and measured after 6 hrs relative to control. The series is classed as functional.
Series [3] has as its system Mus musculus. In words: Inhibition of zymosan-induced TLR2/Dectin-1 Signaling Pathway assessed as reduction in paw edema in Swiss mouse at 0.5 mg/kg, sc pretreated for 1 hr followed by […] and measured after 48 hrs relative to control. It counts as functional.
Series [4] can be described thus: Psychoactive effect in Swiss mouse assessed as reduction in locomotor activity by measuring change in distance travelled at 1.5 mg/kg, ip and measured for 6 hrs. The series is classed as ADME, organism-based. The note with it: in vivo.
For series [5], the system named is Mus musculus. In words: Inhibition of carrageenan-induced paw edema in Swiss mouse at 1.5 mg/kg, ip pretreated for 30 mins followed by carrageenan-stimulation and measured after 6 hrs. It counts as functional, organism-based. A general note: In the carrageenan paw model, swelling and tenderness develop within hours.
The nature of series [6]: Psychoactive effect in Swiss mouse assessed as antinociceptive effect by measuring paw withdrawal latencies at 1.5 mg/kg, ip and measured for 6 hrs. The series is classed as ADME, organism-based. The note with it: in vivo.
Series [7] in a line: Psychoactive effect in Swiss mouse assessed as hypothermic effects at 1.5 mg/kg, ip and measured for 6 hrs by thermometric method. It counts as ADME, organism-based. The note with it: in vivo.
Series [8] is described as follows: Psychoactive effect in Swiss mouse assessed as catalepsy effect at 1.5 mg/kg, ip and measured for 6 hrs. It counts as ADME, organism-based. The note with it: in vivo.

Calls of active or inactive are those of the source. The calls are words filed in the database; no cut-off is given here.

As a reminder, the inhibition in vivo is the share of the control response that was lost under treatment. As for `C[C@@H]1C[C@H]2[C@@H]3CCC4=CC(=O)C=C[C@]4(C)[C@@]3(F)[C@@H](O)C[C@]2(C)[C@@]1(O)C(=O)CO` [DEXAMETHASONE], the inhibition in vivo at 0.5 mg/kg stood at 72% in series [1], 82% in series [2] and 45% in series [3].
With `Cc1c(C(=O)c2cccc3ccccc23)c2cccc3c2n1[C@H](CN1CCOCC1)CO3` [WIN-552122], the Activity result in series [4], in series [6], in series [7] and in series [8] was “Toxic” in each case. The inhibition entry in series [5] is “Active”.
